# Read-outs that look alike come from different tables or passages of the source.
# Target: T1, human cloned 5-HT6 receptors (Homo sapiens, UniProt P50406)
# T1 construct: expressed in transfected cells; host or cells: HeLa cells
# Assay type: binding
# Protocol: This operation is repeated.
# The reaction is allowed to proceed in the dark for 120 min at room temperature, at which time, the bound ligand-receptor complex is filtered off on a 96 well unifilter with a Packard Filtermate® 196 Harvester. The bound complex caught on the filter disk is allowed to air dry and the radioactivity is measured in a Packard TopCount® equipped with six photomultiplier detectors, after the addition of 40.0 μl Microscint®-20 scintillant to each shallow well. The unifilter plate is heat-sealed and counted in a PackardTopCount® with a tritium efficiency of 31.0%.
# Specific binding to the 5-HT6 receptor is defined as the total radioactivity bound less the amount bound in the presence of 10.0 μM unlabeled methiothepin. Binding in the presence of varying concentrations of test compound is expressed as a percentage of specific binding in the absence of test compound. The results are plotted as logit % bound versus log concentration of test compound. Nonlinear regression analysis of data points with a computer assisted program Prism® yields both the IC50 and the Ki values of test compounds with 95% confidence limits.
# The amount of displacement by the test compound is given in percent (%) inhibition and is derived from the following equation: [formula] where B0 is the amount of CPM bound in the presence of the testing agent. NSB represents the CPM bound in the presence of a saturating concentration of a displacer and TB represents the total amount of CPM bound at zero (0) concentration of test compound.
# Alternatively, a linear regression line of decline of data points is plotted, from which the IC50 value can be read off and the Ki value determined by solving the following equation: [formula] where L is the concentration of the radioactive ligand used and KD is the dissociation constant of the ligand for the receptor, both expressed in nM.
# [1] = test compound dose 1000 nM, displacement of [3H]-LSD
# [2] = test compound dose 100 nM, displacement of [3H]-LSD, read-out: % Inhibition
# [3] = test compound dose 100 nM, displacement of [3H]-LSD
# T1 sequence (P50406 whole entry): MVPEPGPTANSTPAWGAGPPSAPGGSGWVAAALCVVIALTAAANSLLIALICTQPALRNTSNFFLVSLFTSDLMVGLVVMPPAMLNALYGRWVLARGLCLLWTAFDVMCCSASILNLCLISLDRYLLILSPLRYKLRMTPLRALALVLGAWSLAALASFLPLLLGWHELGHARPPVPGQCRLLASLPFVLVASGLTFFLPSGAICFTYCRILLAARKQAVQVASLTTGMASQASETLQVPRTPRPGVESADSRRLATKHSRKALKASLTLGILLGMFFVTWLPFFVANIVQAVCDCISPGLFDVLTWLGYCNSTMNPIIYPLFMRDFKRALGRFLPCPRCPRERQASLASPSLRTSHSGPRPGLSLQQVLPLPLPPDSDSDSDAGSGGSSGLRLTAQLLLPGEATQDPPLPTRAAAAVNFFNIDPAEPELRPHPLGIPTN
structure (smiles),measurement,setting,value
"CC(=NNC(=N)N)c1c(-c2ccc(Cl)cc2)n(Cc2csc(C)n2)c2ccccc12 [Example 100, 2-(1-{2-(4-chlorophenyl)-1-[(2-methyl-1,3-thiazol-4-yl)methyl]-1H-indol-3-yl}ethylidene)-1hydrazinecarboximidamide]",inhibition at 1 µM,[1],31.5%
"Cc1nc(Cn2c(-c3ccc(Cl)cc3)c(C=NNC(=N)N)c3ccccc32)cs1 [Example 101, 2-({2-(4-chlorophenyl)-1-[(2-methyl-1,3-thiazol-4-yl)methyl]-1H-indol-3-yl}methylidene)-1hydrazinecarboximidamide]",inhibition at 1 µM,[1],24%
"Cc1nc(Cn2c(-c3ccc(Cl)cc3)c(C=CNNC3=NCCN3)c3ccccc32)cs1 [Example 102, {[2-(4-chlorophenyl)-1((2-methyl-thiazol-4-yl)methyl)-1H-indol-3-yl]methylene}-N′-(4,5-dihydro-1H-imidazol-2-yl)-N-methylhydrazine]",inhibition at 1 µM,[1],62.7%
"CCn1c(-c2ccc(Cl)cc2)c(C=NNC(=N)N)c2ccccc21 [Example 103, 2-{[2-(4-chloro-phenyl)-1-ethyl-1H-indol-3-yl]-methylene}hydrazinecarboximidamide]",inhibition at 1 µM,[1],80.1%
"CCn1c(-c2ccc(Cl)cc2)c(C=NN(C)C2=NCCN2)c2ccccc21 [Example 104, N-{[2-(4-chloro-phenyl)-1-ethyl-1H-indol-3-yl]-methylene}-N′-(4,5-dihydro-1H-imidazol-2-yl)-N-methylhydrazine]",% Inhibition,[1],100.0%
"CC(=NNC(=N)N)c1c(-c2ccc(Cl)cc2)n(CCC#N)c2ccccc12 [Example 107, 2-{1-[2-(4-chloro-phenyl)-1-(2-cyano-ethyl)-1H-indol-3-yl]-ethylidene}hydrazinecarboximidamide]",inhibition at 1 µM,[1],87.2%
"N#CCCn1c(-c2ccc(Cl)cc2)c(C=NNC(=N)N)c2ccccc21 [Example 108, 2-{[2-(4-chloro-phenyl)-1-(2-cyano-ethyl)-1H-indol-3-yl]-methylene}hydrazinecarboximidamide]",inhibition at 1 µM,[1],92%
"CN(N=Cc1c(-c2ccc(Cl)cc2)n(CCC#N)c2ccccc12)C1=NCCN1 [Example 109, N-{[2-(4-chloro-phenyl)-1-(2-cyano-ethyl)-1H-indol-3-yl]-methylene}-N′-(4,5-dihydro-1H-imidazol-2-yl)-N-methylhydrazine]",% Inhibition,[1],99.1%
"N=C(N)NN=Cc1c(-c2ccc(Cl)cc2)n(CCc2ccccc2)c2ccccc12 [Example 110, 2-{[2-(4-chloro-phenyl)-1-(2-phenethyl)-1H-indol-3-yl]-methylene}hydrazinecarboximidamide]",% Inhibition,[1],20.9%
"CN(N=Cc1c(-c2ccc(Cl)cc2)n(CCc2ccccc2)c2ccccc12)C1=NCCN1 [Example 111, N-{[2-(4-chloro-phenyl)-1-(2-phenethyl)-1H-indol-3-yl]-methylene}-N′-(4,5-dihydro-1H-imidazol-2-yl)-N-methylhydrazine]",% Inhibition,[1],37.5%
"C=CCCn1c(-c2ccc(Cl)cc2)c(C=NN(C)C2=NCCN2)c2ccccc21 [Example 112, N-{[1-(3-butenyl)-2-(4-chloro-phenyl)-1H-indol-3-yl]-methylene}-N′-(4,5-dihydro-1H-imidazol-2-yl)-N-methylhydrazine]",% Inhibition,[1],85.1%
"N=C(NCCO)NN=Cc1c(-c2ccc(Cl)cc2)[nH]c2ccccc12 [Example 113, 2-{[2-(4-chlorophenyl)-1H-indol-3-yl]methylidene}-N-(2-hydroxyethyl)-1hydrazinecarboximidamide]",inhibition at 1 µM,[1],84.1%
"CN=C(NCCO)NN=Cc1c(-c2ccc(Cl)cc2)[nH]c2ccccc12 [Example 114, 2-{[2-(4-chlorophenyl)-1H-indol-3-yl]methylidene}-N-(2-hydroxyethyl)-N′-methyl-1hydrazinecarboximidamide]",inhibition at 1 µM,[1],31.6%
"N=C(NN=Cc1c(-c2ccc(Cl)cc2)[nH]c2ccccc12)NC1CCCC1 [Example 115, 2-{[2-(4-chlorophenyl)-1H-indol-3-yl]methylidene}-N-cyclopentyl-1hydrazinecarboximidamide]",inhibition at 1 µM,[1],49.5%
"CN=C(NN=Cc1c(-c2ccc(Cl)cc2)[nH]c2ccccc12)NC1CCCC1 [Example 116, 2-{[2-(4-chlorophenyl)-1H-indol-3-yl]methylidene}-N-cyclopentyl-N′-methyl-1hydrazinecarboximidamide]",inhibition at 1 µM,[1],59.5%
"N=C(NCc1ccccc1)NN=Cc1c(-c2ccc(Cl)cc2)[nH]c2ccccc12 [Example 117, 2-{[2-(4-chlorophenyl)-1H-indol-3-yl]methylidene}-N-benzyl-1hydrazinecarboximidamide]",inhibition at 1 µM,[1],69%
"CN=C(NCc1ccccc1)NN=Cc1c(-c2ccc(Cl)cc2)[nH]c2ccccc12 [Example 118, 2-{[2-(4-chlorophenyl)-1H-indol-3-yl]methylidene}-N-benzyl-N′-methyl-1hydrazinecarboximidamide]",inhibition at 1 µM,[1],56.2%
"CCCNC(=N)NN=Cc1c(-c2ccc(Cl)cc2)[nH]c2ccccc12 [Example 119, 2-{[2-(4-chlorophenyl)-1H-indol-3-yl]methylidene}-N-propyl-1hydrazinecarboximidamide]",inhibition at 1 µM,[1],86%
"CCCNC(=NC)NN=Cc1c(-c2ccc(Cl)cc2)[nH]c2ccccc12 [Example 120, 2-{[2-(4-chlorophenyl)-1H-indol-3-yl]methylidene}-N′-methyl-N-propyl-1hydrazinecarboximidamide]",inhibition at 1 µM,[1],49.9%
"CNC(=N)NN=Cc1c(-c2ccc(Cl)cc2)[nH]c2ccccc12 [Example 121, 2-{[2-(4-chlorophenyl)-1H-indol-3-yl]methylidene}-N-methyl-1hydrazinecarboximidamide]",inhibition at 1 µM,[1],90.5%
"CN=C(NC)NN=Cc1c(-c2ccc(Cl)cc2)[nH]c2ccccc12 [Example 122, 2-{[2-(4-chlorophenyl)-1H-indol-3-yl]methylidene}-N,N′-dimethyl-1hydrazinecarboximidamide]",inhibition at 1 µM,[1],38.4%
"CCCCCNC(=N)NN=Cc1c(-c2ccc(Cl)cc2)[nH]c2ccccc12 [Example 123, 2-{[2-(4-chlorophenyl)-1H-indol-3-yl]methylidene}-N-pentyl-1hydrazinecarboximidamide]",inhibition at 1 µM,[1],70.4%
"CCCCCNC(=NC)NN=Cc1c(-c2ccc(Cl)cc2)[nH]c2ccccc12 [Example 124, 2-{[2-(4-chlorophenyl)-1H-indol-3-yl]methylidene}-N′-methyl-N-pentyl-1hydrazinecarboximidamide]",inhibition at 1 µM,[1],74%
"C/C(=N\NC(=N)N)c1c(-c2ccc(Cl)cc2Cl)[nH]c2ccc(Cl)cc12 [Example 127, 2-{[5-Chloro-2-(2,4-dichlorophenyl)-1H-indol-3-yl]ethylidene}hydrazinecarboximidamide]",inhibition at 0.1 µM,,50.6%
"C/C(=N\NC(=N)N)c1c(-c2ccc(Cl)cc2Cl)n(C)c2ccc(Cl)cc12 [Example 128, 2-{[5-Chloro-2-(2,4-dichlorophenyl)-1-methyl-1H-indol-3-yl]ethylidene}hydrazinecarboximidamide]",inhibition at 0.1 µM,,57.3%
"C/C(=N\NC(=N)N)c1c(-c2sccc2C)[nH]c2ccccc12 [Example 133, 2-{[2-(2-(3-methyl-thienyl))-1H-indol-3-yl]-ethylidene}hydrazinecarboximidamide]",inhibition at 0.1 µM,[2],63.2%
"CC(=NNC(=N)N)c1c(-c2ccc(-c3ccccc3)cc2)[nH]c2ccc(Cl)cc12 [Example 141, 2-[(2-biphenyl-5-chloro-1H-indol-3-yl)-ethylidene]hydrazinecarboximidamide]",% Inhibition,[3],33.6%
"CC(=NNC(=N)N)c1c(-c2ccc(-c3ccccc3)cc2)n(C)c2ccc(Cl)cc12 [Example 143, 2-[(2-biphenyl-5-chloro-1-methyl-1H-indol-3-yl)-ethylidene]hydrazinecarboximidamide]",% Inhibition,[3],34.6%
"C/C(=N\NC(=N)N)c1c(-c2sccc2C)n(C)c2ccccc12 [Example 146, 2-{[1-methyl-2-(2-(3-methyl-thienyl))-1H-indol-3-yl]-ethylidene}hydrazinecarboximidamide]",inhibition at 0.1 µM,[2],46.1%
"N=C(N)N/N=C1\CCCc2[nH]c3ccc(Cl)cc3c21 [Example 152, 2-(6-Chloro-1,2,3,9-tetrahydro-4H-carbazol-4-ylidene)hydrazine-carboximidamide]",inhibition at 1 µM,[1],99.1%
"Clc1ccc2[nH]c3c(c2c1)C(=NNC1=NCCN1)CCC3 [Example 153, 6-chloro-1,2,3,9-tetrahydro-4H-carbazol-4-one 4,5-dihydro-1H-imidazol-2-ylhydrazone]",inhibition at 1 µM,[1],97%
"CN(N=C1CCCc2[nH]c3ccc(Cl)cc3c21)C1=NCCN1 [Example 154, 6-chloro-1,2,3,9-tetrahydro-4H-carbazol-4-one 4,5-dihydro-1H-imidazol-2-yl(methyl)hydrazone]",inhibition at 1 µM,[1],87.1%
"N=C(N)NN=C1CCCc2[nH]c3ccc(F)cc3c21 [Example 156, 2-(6-fluoro-1,2,3,9-tetrahydro-4H-carbazol-4-ylidene)hydrazinecarboximidamide]",inhibition at 1 µM,[1],98.8%

# Source: patent publication US6951881B2, “(1-substituted-indol-3-yl) alkylidenehydrazinecarboximidamide derivatives as 5-hydroxytryptamine-6 ligands” (Wyeth, priority 2002, dated 2005)
